Measurements reported in PubChem BioAssay (NCI).
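48-hour exposure; five concentrations; linearly interpolated endpoints. GI50: concentration for 50% inhibition of growth. At the TGI there is no net growth.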

Assays:
Assay in all cases: inhibition of tumour cell growth, NCI panel, 48 h
[1] = system: SNB-19 CNS
[2] = system: HCC-2998 colon
[3] = system: SF-539 CNS
[4] = system: HS 578T breast
[5] = system: UO-31 renal
[6] = system: SW-620 colon
[7] = system: T-47D breast
[8] = system: SR leukemia
[9] = system: LOX IMVI melanoma
[10] = system: SF-295 CNS

| Structure (SMILES) | GI50 [1] | TGI [1] | GI50 [2] | TGI [2] | GI50 [3] | TGI [3] | GI50 [4] | TGI [4] | GI50 [5] | TGI [5] | GI50 [6] | TGI [6] | GI50 [7] | TGI [7] | GI50 [8] | TGI [8] | GI50 [9] | TGI [9] | GI50 [10] | TGI [10] |
| --- | --- | --- | --- | --- | --- | --- | --- | --- | --- | --- | --- | --- | --- | --- | --- | --- | --- | --- | --- | --- |
| COc1cccc(/C=C/C(=O)c2ccc(SC)cc2)c1OC | 16.2 µM | 32 µM | 16.8 µM | 30.4 µM | 20 µM | 39.6 µM | 25.3 µM | 56.6 µM | 17 µM | 31.1 µM | 18.8 µM | 35.7 µM | 11.6 µM | 35.2 µM | 4.43 µM | 79.5 µM | – | – | – | – |
| CSc1c(C2=C(c3cn(C)c4ccccc34)C(=O)NC2=O)c2ccccc2n1C | > 25 µM | > 25 µM | 5.31 µM | > 25 µM | – | – | 0.59 µM | > 25 µM | 0.703 µM | > 19.4 µM | 0.736 µM | > 25 µM | 1.15 µM | > 25 µM | 0.128 µM | 1.88 µM | 1.54 µM | > 25 µM | 0.671 µM | > 25 µM |
| O=C1C(=C(C(F)(F)Cl)C(F)(F)Cl)C2CCC1C2 (stereo not drawn) | – | > 10 µM | – | > 10 µM | – | > 6.2 µM | – | > 10 µM | – | > 6.47 µM | – | 3.98 µM | – | 4.58 µM | – | > 3.34 µM | – | 2.89 µM | – | > 10 µM |
| CSC(=NC#N)S/C=C/C(=O)c1ccccc1 | > 100 µM | > 100 µM | 59.4 µM | > 100 µM | 22.6 µM | 49.4 µM | 39 µM | 96.8 µM | 28.3 µM | > 100 µM | 18 µM | 43.3 µM | > 100 µM | > 100 µM | 12.9 µM | 69.4 µM | 31 µM | > 100 µM | 30.5 µM | > 100 µM |
| Cc1c(O)c(N=Nc2nc3ccccc3s2)c2ccccc2c1O | 28.4 µM | > 50 µM | > 50 µM | > 50 µM | 18.3 µM | > 50 µM | 28.9 µM | > 50 µM | 18.8 µM | > 50 µM | 25.9 µM | > 50 µM | 39.2 µM | > 50 µM | > 50 µM | > 50 µM | 29.7 µM | > 50 µM | 24.7 µM | > 50 µM |
| Cc1ccc2oc(=O)cc(/C(=C3/C=CC=N3)c3ccc[nH]3)c2c1 | 0.355 µM | 4.94 µM | 1.15 µM | 3.12 µM | 0.226 µM | 0.67 µM | 0.391 µM | 4.7 µM | 0.45 µM | 5.11 µM | 0.396 µM | 13.7 µM | 0.445 µM | 7.66 µM | 0.34 µM | 1.46 µM | 0.343 µM | 1.41 µM | 0.215 µM | 0.667 µM |
| COc1cc(Oc2c(C)c(Cl)c(OC)c(Cl)c2OC)c2c(c1Cl)COC2=O | – | > 100 µM | – | > 100 µM | – | > 100 µM | – | > 100 µM | – | > 100 µM | – | > 100 µM | – | > 100 µM | – | 83.5 µM | – | > 100 µM | – | > 100 µM |
| CC1(C)S[C@@H]2[C@H](N3C(=O)c4ccccc4C3=O)CN2[C@H]1NC(=O)N[C@@H]1N2C[C@@H](N3C(=O)c4ccccc4C3=O)[C@H]2SC1(C)C | – | > 100 µM | – | > 100 µM | – | > 100 µM | – | > 100 µM | – | > 100 µM | – | > 100 µM | – | > 100 µM | – | – | – | > 100 µM | – | > 100 µM |
| BrC(Br)=C1C(=C(Br)Br)C(Br)C1Br (stereo not drawn) | – | 15.5 µM | – | 0.777 µM | – | – | – | 23.3 µM | – | 2.24 µM | – | 1 µM | – | > 100 µM | – | 1.54 µM | – | 1.03 µM | – | 2.32 µM |
| NCCc1ccc(S(=O)(=O)F)cc1 | > 100 µM | > 100 µM | 39.1 µM | > 100 µM | 14.8 µM | 70 µM | 82.8 µM | > 100 µM | > 100 µM | > 100 µM | 52.8 µM | > 100 µM | > 100 µM | > 100 µM | – | – | 51.1 µM | > 100 µM | 64.5 µM | > 100 µM |
| Cc1nc2c(c(N3CCCc4ccccc43)n1)CCC2 | < 0.01 µM | > 100 µM | < 0.01 µM | > 100 µM | – | – | < 0.01 µM | > 100 µM | < 0.01 µM | > 100 µM | < 0.01 µM | > 100 µM | 30.7 µM | > 100 µM | < 0.01 µM | 13.1 µM | < 0.01 µM | > 100 µM | < 0.01 µM | > 100 µM |
| CCCCCCCCCCCCCCCC1=NCCN1 | – | – | 1.85 µM | 3.42 µM | 1.89 µM | 3.6 µM | 2.22 µM | 6 µM | 1.65 µM | 3.47 µM | 1.9 µM | 3.77 µM | 2.14 µM | 5.65 µM | 1.84 µM | 4.31 µM | – | – | 1.97 µM | 3.95 µM |
| COc1cc2c3cc1Oc1c(OC)c(OC)cc4c1C(=NCC4)Cc1ccc(cc1)Oc1cc(ccc1O)C[C@H]3N(C)CC2 | – | 61.6 µM | – | 26.1 µM | – | 27.9 µM | – | 63.7 µM | – | – | – | 36.7 µM | – | 40.4 µM | – | 31.2 µM | – | 25.1 µM | – | 43.3 µM |
| COC1C(O)CC(OC2CC(OC3CC(O[C@@H]4C(=O)c5c(cc6cc(OC7CC(OC8CC(O)C(O)C(C)O8)C(O)C(C)O7)c(C)c(O)c6c5O)CC4[C@H](OC)C(=O)O)OC(C)C3O)OC(C)C2O)OC1C (stereo partly drawn) | 1.68 µM | > 33.3 µM | 3.1 µM | 20 µM | – | – | 1.93 µM | > 33.3 µM | 1.11 µM | > 33.3 µM | 2.52 µM | > 33.3 µM | 1.33 µM | 32.1 µM | 0.922 µM | > 33.3 µM | 0.983 µM | 5.07 µM | 0.97 µM | > 33.3 µM |
| CC(=O)/C(=C/c1ccccc1)C(=O)CC(C)C | 12.7 µM | 26.2 µM | 9.49 µM | 21.7 µM | 23.4 µM | 49.4 µM | 3.89 µM | 21.2 µM | 10.5 µM | 22.6 µM | 2.14 µM | 4.63 µM | 24 µM | 91.9 µM | 2.46 µM | 7.37 µM | 1.85 µM | 4.02 µM | – | – |
| O=c1[nH]c2ccccc2c2nc3ccccc3n12 | – | > 100 µM | – | > 100 µM | – | 69.1 µM | – | > 100 µM | – | > 100 µM | – | > 100 µM | – | > 100 µM | – | – | – | > 100 µM | – | > 100 µM |
